Data from US8580821B2, “Serotonin transporter (SERT) inhibitors for the treatment of depression and anxiety” (Hoffmann-La Roche Inc., priority 2006, dated 2013).
Where a name gives a salt, the structure may show the parent alone. Read-outs that look alike come from different tables or passages of the source.

Columns and labels:
recombinant human SERT = target: T1, recombinant human SERT (Homo sapiens, UniProt P31645); assay: hSERT SPA binding assay ([3H]citalopram displacement, HEK-293 membranes)
T1 construct: expressed in transfected cells
Protocol: HEK-293 cells stably expressing recombinant human SERT are maintained with DMEM high glucose with 10% FBS, 300 μg/ml G418 and 2 mM L-Glutamine and incubated at 37° C. with 5% CO2. Cells are released from culture flasks using PBS for 1-2 min. The cells are subsequently centrifuged at 1000 g's for 5 min and resuspended in PBS prior to being used in the membrane preparation.
Cells are homogenized using a Polytron in 50 mM Tris (pH 7.4). Centrifuged at 48,000×g for 15 min, and the pellet resuspended in fresh buffer. After a second centrifugation, the pellet is re-homogenized and resuspended in fresh buffer. Typically, membrane portions are aliquoted in 3 mg/ml (w:v). and stored at 80° C.
A serial dilution of test compounds in 50 mM Tris-HCl, 120 mM NaCl, KCl 5 mM (pH 7.4) is made in a white Optiplate (Packard) (100 μl/well) and the radioligand ^3[H] Citalopram (Specific activity: 60-86 Ci/mmol, Final concentration: 1 nM) is added at 50 μl/well. Membrane and beads are prepared to a ratio of 5 μg:0.6 mg, with 0.6 mg PVT-WGA Amersham beads (Cat# RPQ0282V) added per well. 50 μl of the membrane/bead mixture is added to the assay plate for a final volume of 200 μl. The mixtures are allowed to stand at room temperature for one hour, and are then counted on a Packard TopCount.
The inhibition dissociation constant (Ki) of each compound is determined according to the method of Cheng-Prusoff.

human NK-1 receptor = target: T2, human NK-1 receptor (Homo sapiens, UniProt P25103); assay: hNK-1 binding assay ([3H]substance P displacement, transfected CHO cells)
T2 construct: expressed in transfected cells; host or cells: CHO cells, Semliki virus expression system; membrane suspension
Protocol: The affinity of test compounds for the NK-1 receptor was evaluated at human NK-1 receptors in CHO cells transfected with the human NK-1 receptor using the Semliki virus expression system and radiolabelled with [^3H]substance P (final concentration 0.6 nM). Binding assays were performed in HEPES buffer (50 mM, pH 7.4) containing BSA (0.04%) leupeptin (8 μg/ml), MnCl2 (3 mM) and phosphoramidon (2 μM). Binding assays consisted of 250 μl of membrane suspension (1.25×10^5 cells/assay tube), 125 μl of buffer of displacing agent and 125 μl of [^3H]substance P. Displacement curves were determined with at least ten concentrations of the compound. The assay tubes were incubated for 60 min at room temperature after which time the tube contents were rapidly filtered under vacuum through GF/C filters presoaked for 60 min with PEI (0.3%) with 2×2 ml washes of HEPES buffer (50 mM, pH 7.4). The radioactivity retained on the filters was measured by scintillation counting. All assays were performed in duplicate in at least 2 separate experiments.
The inhibition dissociation constant (Ki) of each compound for NK1 is determined as described above for hSERT.

[1] = [3H]substance P 0.6 nM, CHO cells transfected with human NK-1 receptor, read-out: pKi hNK1 (converted)
[2] = read-out: pKi hSERT (converted)

T1 sequence (P31645 whole entry): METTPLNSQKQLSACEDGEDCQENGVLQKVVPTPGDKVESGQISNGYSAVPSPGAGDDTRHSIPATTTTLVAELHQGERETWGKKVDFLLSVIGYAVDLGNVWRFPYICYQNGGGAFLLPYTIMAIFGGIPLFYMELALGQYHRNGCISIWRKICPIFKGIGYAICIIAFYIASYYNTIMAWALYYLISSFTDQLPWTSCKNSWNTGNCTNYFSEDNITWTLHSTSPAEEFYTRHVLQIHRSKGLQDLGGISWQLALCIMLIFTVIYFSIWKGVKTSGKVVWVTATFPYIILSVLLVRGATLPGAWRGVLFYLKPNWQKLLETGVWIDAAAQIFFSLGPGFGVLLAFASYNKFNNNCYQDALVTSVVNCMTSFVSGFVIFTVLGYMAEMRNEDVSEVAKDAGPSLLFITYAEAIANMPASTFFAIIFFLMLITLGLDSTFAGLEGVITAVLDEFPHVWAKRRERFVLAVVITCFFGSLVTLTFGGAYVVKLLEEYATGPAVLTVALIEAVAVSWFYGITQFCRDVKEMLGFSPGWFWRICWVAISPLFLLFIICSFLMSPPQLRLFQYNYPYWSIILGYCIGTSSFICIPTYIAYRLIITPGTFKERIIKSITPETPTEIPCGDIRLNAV
T2 sequence (P25103 whole entry): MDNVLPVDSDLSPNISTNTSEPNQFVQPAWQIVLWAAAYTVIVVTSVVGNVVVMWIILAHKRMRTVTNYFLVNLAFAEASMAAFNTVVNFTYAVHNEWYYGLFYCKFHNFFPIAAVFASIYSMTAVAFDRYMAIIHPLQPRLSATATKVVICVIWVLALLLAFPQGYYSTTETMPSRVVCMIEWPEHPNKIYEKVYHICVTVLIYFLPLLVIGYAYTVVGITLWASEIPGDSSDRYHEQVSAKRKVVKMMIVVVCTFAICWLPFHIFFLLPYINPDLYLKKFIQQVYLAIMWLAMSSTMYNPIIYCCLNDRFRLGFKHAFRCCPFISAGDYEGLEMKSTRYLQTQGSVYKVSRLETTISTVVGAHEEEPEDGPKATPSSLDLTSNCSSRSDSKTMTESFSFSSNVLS

| Ki (human NK-1 receptor; [1]) [µM] | Ki (recombinant human SERT; [2]) [µM] | SMILES | Ki (recombinant human SERT) [µM] | Ki (human NK-1 receptor) [µM] |
| --- | --- | --- | --- | --- |
| 0.0204 | 0.708 | CN(Cc1cc(C(F)(F)F)cc(C(F)(F)F)c1)C[C@@H]1CNCC[C@H]1c1ccc(F)cc1 [Example 2 of III, reference compound] | – | – |
| 0.0302 | 10 | CS(=O)(=O)N(Cc1cc(C(F)(F)F)cc(C(F)(F)F)c1)C[C@@H]1CNCC[C@H]1c1ccc(F)cc1 [Example 4 of III, reference compound] | – | – |
| 0.0138 | 10 | CC(=O)N(Cc1cc(C(F)(F)F)cc(C(F)(F)F)c1)C[C@@H]1CNCC[C@H]1c1ccc(F)cc1 [Example 3 of III, reference compound] | – | – |
| 0.00891 | 0.011 | FC(F)(F)c1cc(COC[C@@H]2CNCC[C@H]2c2ccccc2)cc(C(F)(F)F)c1 (racemic) [Example 5 of I, (3SR,4RS)-3-(3,5-Bis-trifluoromethyl-benzyloxymethyl)-4-phenyl-piperidine hydrochloride] | – | – |
| 0.00813 | 0.107 | CN1CC[C@@H](c2ccc(F)cc2)[C@H](COCc2cc(C(F)(F)F)cc(C(F)(F)F)c2)C1 [Example 2 of I] | – | – |
| 0.0214 | 0.141 | N#CCN1CC[C@@H](c2ccc(F)cc2)[C@H](COCc2cc(C(F)(F)F)cc(C(F)(F)F)c2)C1 [Example 3 of I, (−)-[(3S,4R)-3-(3,5-Bis-trifluoromethyl-benzyloxymethyl)-4-(4-fluoro-phenyl)-piperidin-1-yl]-acetonitrile] | – | – |
| 0.024 | 0.0324 | Cc1ccccc1[C@@H]1CCNC[C@H]1COCc1cc(C(F)(F)F)cc(C(F)(F)F)c1 (relative stereo) [Example 6 of I, (−)-(trans)-3-(3,5-Bis-trifluoromethyl-benzyloxymethyl)-4-o-tolyl-piperidine hydrochloride] | – | – |
| 0.0631 | 3.02 | [O-][S+](Cc1cc(C(F)(F)F)cc(C(F)(F)F)c1)C[C@@H]1CNCC[C@H]1c1ccc(F)cc1 (stereo partly shown) [Example 2 of II, reference compound] | – | – |
| 0.0135 | – | O=S(=O)(Cc1cc(C(F)(F)F)cc(C(F)(F)F)c1)C[C@@H]1CNCC[C@H]1c1ccc(F)cc1 [Example 3 of II, reference compound] | – | – |

| SMILES | Ki (human NK-1 receptor; [1]) [µM] | Ki (recombinant human SERT; [2]) [µM] | Ki (recombinant human SERT) [µM] | Ki (human NK-1 receptor) [µM] |
| --- | --- | --- | --- | --- |
| Fc1ccc([C@@H]2CCNC[C@H]2COCc2cccc(C(F)(F)F)c2)cc1 [Example 4 of I, (−)-(3S,4R)-4-(4-Fluoro-phenyl)-3-(3-trifluoromethyl-benzyloxymethyl)-piperidine hydrochloride] | 0.148 | – | 0.017 | – |
| Fc1ccc([C@@H]2CCNC[C@H]2COCc2cc(C(F)(F)F)cc(C(F)(F)F)c2)cc1 [Example 1 of I, (−)-(3S,4R)-3-(3,5-Bis-trifluoromethyl-benzyloxymethyl)-4-(4-fluoro-phenyl)-piperidine hydrochloride] | – | 0.00617 | – | 0.0126 |
| Fc1ccc([C@@H]2CCNCC2CNCc2cc(C(F)(F)F)cc(C(F)(F)F)c2)cc1 (stereo partly shown) [Example 1 of III, reference compound] | 0.0126 | 0.724 | – | – |
| Cc1ccccc1C1=C(COCc2cc(C(F)(F)F)cc(C(F)(F)F)c2)CNCC1 [Example 7 of I, 5-(3,5-Bis-trifluoromethyl-benzyloxymethyl)-4-o-tolyl-1,2,3,6-tetrahydro-pyridine hydrochloride] | – | 0.0324 | – | 0.00316 |
